The source of these data is article PMC7307906, “Macrocyclic Modalities Combining Peptide Epitopes and Natural Product Fragments” (Journal of the American Chemical Society, 2020).

In assay [1] the target is T1, human MC4R (Homo sapiens, UniProt P32245).
T1 construct: expressed in transfected cells
The experiment in a line: Melanocortin receptor radioligand binding (SPA, [125I]-NDP-α-MSH displacement), MC4R. Conditions: competitive binding, mean (± SEM) of at least three independent experiments, read-out: IC50 hMC4R binding.

Assay [2] deals with T2, human MC5R (Homo sapiens, UniProt P33032).
T2 construct: expressed in transfected cells; host or cells: HEK293-6E suspension cells, transient expression; membranes
T2 sequence (P33032 whole entry): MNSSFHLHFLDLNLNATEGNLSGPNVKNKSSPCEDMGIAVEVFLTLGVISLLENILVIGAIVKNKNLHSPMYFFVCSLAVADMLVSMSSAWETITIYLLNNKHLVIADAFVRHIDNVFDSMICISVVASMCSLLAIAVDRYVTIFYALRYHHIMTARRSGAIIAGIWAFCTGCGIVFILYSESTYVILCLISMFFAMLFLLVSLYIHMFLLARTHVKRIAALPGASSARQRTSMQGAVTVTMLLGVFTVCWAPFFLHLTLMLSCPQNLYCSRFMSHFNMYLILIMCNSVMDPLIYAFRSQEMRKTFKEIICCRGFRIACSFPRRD
The experiment in a line: Melanocortin receptor radioligand binding (SPA, [125I]-NDP-α-MSH displacement), MC5R. Conditions: for IC50: competitive binding, [125I]-NDP-α-MSH, mean (± SEM) of at least three independent experiments, read-out: IC50 hMC5R binding.

For assay [3], the target named is T3, human MC1R (Homo sapiens, UniProt Q01726).
T3 construct: expressed in transfected cells
T3 sequence (Q01726 whole entry): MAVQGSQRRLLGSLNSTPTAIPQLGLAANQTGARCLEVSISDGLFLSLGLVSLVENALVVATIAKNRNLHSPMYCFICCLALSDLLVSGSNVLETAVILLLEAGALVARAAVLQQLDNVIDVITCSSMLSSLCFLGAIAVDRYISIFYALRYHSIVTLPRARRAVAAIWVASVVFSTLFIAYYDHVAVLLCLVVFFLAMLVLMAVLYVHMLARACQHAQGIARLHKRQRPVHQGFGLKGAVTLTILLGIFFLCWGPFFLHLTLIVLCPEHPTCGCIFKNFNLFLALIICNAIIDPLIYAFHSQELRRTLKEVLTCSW
The experiment in a line: Melanocortin receptor radioligand binding (SPA, [125I]-NDP-α-MSH displacement), MC1R. Conditions: competitive binding, mean (± SEM) of at least three independent experiments, read-out: IC50 hMC1R binding.

The target of assay [4] is T4, human MC3R (Homo sapiens, UniProt P41968).
T4 construct: expressed in transfected cells
T4 sequence (P41968 whole entry): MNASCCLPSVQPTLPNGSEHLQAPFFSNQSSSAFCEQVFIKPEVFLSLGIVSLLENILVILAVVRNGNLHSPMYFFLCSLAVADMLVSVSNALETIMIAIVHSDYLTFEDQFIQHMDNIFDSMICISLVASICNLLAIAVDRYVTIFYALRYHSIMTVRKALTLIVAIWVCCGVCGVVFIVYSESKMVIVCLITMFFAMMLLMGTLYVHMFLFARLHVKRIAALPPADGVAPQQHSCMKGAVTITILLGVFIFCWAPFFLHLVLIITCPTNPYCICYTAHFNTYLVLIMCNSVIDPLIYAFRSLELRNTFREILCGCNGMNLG
Put plainly: cAMP assay (LANCE) in T-Rex-293 cells expressing MC3R. Type of assay: cell-based. Conditions: for EC50: cAMP assay, mean (± SEM) of at least three independent experiments, read-out: EC50 hMC3R cAMP.

In assay [5] the target is T4, human MC3R. The experiment in a line: Melanocortin receptor radioligand binding (SPA, [125I]-NDP-α-MSH displacement), MC3R. Conditions: competitive binding, mean (± SEM) of at least three independent experiments, read-out: IC50 hMC3R binding.
For assay [6], the target named is T3, human MC1R. The experiment in a line: cAMP assay (LANCE) in T-Rex-293 cells expressing MC1R. Type of assay: cell-based. Conditions: for Emax: T-REx-293, read-out: % Effect hMC1R cAMP; for EC50: cAMP assay, mean (± SEM) of at least three independent experiments, read-out: EC50 hMC1R cAMP. In general terms: cAMP levels reflect the balance of adenylyl cyclase and phosphodiesterase activity.

Assay [7] addresses T1, human MC4R. Put plainly: cAMP assay (LANCE) in T-Rex-293 cells expressing MC4R. Type of assay: cell-based. Conditions: for EC50: cAMP assay, mean (± SEM) of at least three independent experiments, read-out: EC50 hMC4R cAMP.
[8] abbreviates: Emax (curve plateau), relative to NDP-α-MSH, NA = No Activity detected, threshold 20% effect.

Bounds are passed on as bounds.

T1 sequence (P32245 whole entry): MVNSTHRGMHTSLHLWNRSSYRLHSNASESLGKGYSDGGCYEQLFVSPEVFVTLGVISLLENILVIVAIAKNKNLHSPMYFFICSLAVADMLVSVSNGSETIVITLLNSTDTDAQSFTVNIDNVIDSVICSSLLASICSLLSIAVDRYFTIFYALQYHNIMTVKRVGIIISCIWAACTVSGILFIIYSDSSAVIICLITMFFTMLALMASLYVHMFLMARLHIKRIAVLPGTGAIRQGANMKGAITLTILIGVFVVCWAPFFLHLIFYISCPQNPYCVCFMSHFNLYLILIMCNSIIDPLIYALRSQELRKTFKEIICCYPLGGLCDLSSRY

For `C[C@@H]1NC(=O)[C@H](CC(N)=O)NC(=O)[C@H](Cc2ccccc2)NC(=O)[C@H](Cc2ccccc2)NC(=O)[C@H](CCCNC(=N)N)NC(=O)[C@H](Cc2ccccc2)N(C)C(=O)[C@H]2N[C@@H](c3ccc(cc3)C(=O)NCCCC[C@@H](C(=O)N[C@@H](Cc3ccc(O)cc3)C(N)=O)NC1=O)[C@H]1C(=O)N(C)C(=O)[C@H]12` [F1-major*, [ I-FRFFNAK ]Y], the IC50 (commonly the concentration at which inhibition is half-maximal) was more than 100 µM in assay [1], 49 ± 2 µM in assay [2], more than 100 µM in assay [3] and more than 100 µM in assay [5]. In addition, the results for the EC50 in assay [4], in assay [6] and in assay [7] were more than 100 µM, 14 ± 4 µM and more than 100 µM, respectively. Also, in assay [6], the Emax amounted to 31%.
Take `C[C@@H]1NC(=O)[C@H](CC(N)=O)NC(=O)[C@H](Cc2ccccc2)NC(=O)[C@H](Cc2ccccc2)NC(=O)[C@H](CCCNC(=N)N)NC(=O)[C@H](Cc2ccccc2)N(C)C(=O)[C@@H]2N[C@H](c3ccc(cc3)C(=O)NCCCC[C@@H](C(=O)N[C@@H](Cc3ccc(O)cc3)C(N)=O)NC1=O)[C@@H]1C(=O)N(C)C(=O)[C@@H]12` [F1-minor*, [ I-FRFFNAK ]Y]: the IC50 came to 57 ± 5 µM in assay [1], 16 ± 1 µM in assay [2], 65 ± 6 µM in assay [3] and 80 ± 5 µM in assay [5]. The EC50 – broadly, the midpoint of the concentration-response curve – in assay [4] was more than 100 µM; in assay [6] it was 10 ± 1 µM; in assay [7], more than 100 µM. Further, in assay [6], the Emax is 36%.
In the case of `C[C@@H]1NC(=O)[C@H](CC(N)=O)NC(=O)[C@H](Cc2ccccc2)NC(=O)[C@H](Cc2ccccc2)NC(=O)[C@H](CCCNC(=N)N)NC(=O)[C@H](Cc2ccccc2)N(C)C(=O)[C@H]2N[C@@H](c3ccc(cc3)C(=O)NCCCC[C@@H](C(=O)N[C@@H](Cc3ccc(O)cc3)C(N)=O)NC1=O)[C@H]1C(=O)N(c3ccccc3)C(=O)[C@H]12` [F2-minor, [ II-FRFFNAK ]Y], the IC50 in assay [1] stood at 91 ± 5 µM; in assay [2] it was 6.5 ± 0.9 µM; in assay [3], 81 ± 3 µM; in assay [5] it was 85 ± 6 µM. Besides, the figures for the EC50 in assay [4], in assay [6] and in assay [7] were more than 100 µM, 9.3 ± 3.6 µM and more than 100 µM, respectively. Further, the Emax in assay [6] turned out to be 40%.
For `C[C@@H]1NC(=O)[C@H](CC(N)=O)NC(=O)[C@@H](Cc2ccccc2)NC(=O)[C@@H](Cc2ccccc2)NC(=O)[C@H](CCCNC(=N)N)NC(=O)[C@H](Cc2ccccc2)N(C)C(=O)[C@@H]2N[C@H](c3ccc(cc3)C(=O)NCCCC[C@@H](C(=O)N[C@@H](Cc3ccc(O)cc3)C(N)=O)NC1=O)[C@@H]1C(=O)N(C)C(=O)[C@@H]12` [G1-major, [I-FRffNAK ]Y], the IC50 in assay [1], in assay [2], in assay [3] and in assay [5] was more than 10 µM throughout. In addition, the results for the EC50 in assay [4], in assay [6] and in assay [7] were more than 10 µM, 1.8 ± 0.3 µM and more than 10 µM, respectively. Also, the Emax in assay [6] came to 38%.
In the case of `CN1C(=O)[C@@H]2[C@H](C1=O)[C@H]1N[C@@H]2c2ccc(cc2)C(=O)NCCCC[C@@H](C(=O)N[C@@H](Cc2ccc(O)cc2)C(N)=O)NC(=O)[C@H](CC(N)=O)NC(=O)[C@H](Cc2ccccc2)NC(=O)[C@H](Cc2ccccc2)NC(=O)[C@H](CCCNC(=N)N)NC(=O)[C@H](Cc2ccccc2)N(C)C1=O` [J1-major, [ I-FRFFNK ]Y], the IC50 in assay [1] is more than 100 µM; in assay [2] it was 41 ± 9 µM; in assay [3], more than 100 µM; in assay [5], more than 100 µM. Further, the EC50 in assay [4] is more than 100 µM; in assay [6], 17 ± 5 µM; in assay [7] it was more than 100 µM. Besides, the Emax in assay [6] turned out to be 51%.
With `CN1C(=O)[C@H]2N[C@@H](c3ccc(cc3)C(=O)NCCCC[C@@H](C(=O)N[C@@H](Cc3ccc(O)cc3)C(N)=O)NC(=O)[C@H](CC(N)=O)NC(=O)[C@H](Cc3ccccc3)NC(=O)[C@H](Cc3ccccc3)NC(=O)[C@H](CCCNC(=N)N)NC(=O)[C@@H]1Cc1ccccc1)[C@H]1C(=O)N(c3ccccc3)C(=O)[C@H]12` [J2-major, [ II-FRFFNK ]Y], the IC50 came out at 38 ± 6 µM in assay [1], 11 ± 1 µM in assay [2], 32 ± 1 µM in assay [3] and 39 ± 2 µM in assay [5]. For the same compound, the EC50 in assay [4] is more than 100 µM; in assay [6], 6.4 ± 0.3 µM; in assay [7] it was more than 100 µM. Besides, in assay [6], the Emax is 46%.
Take `CN1C(=O)[C@H]2N[C@@H](c3ccc(cc3)C(=O)NCCCC[C@@H](C(=O)NCC(N)=O)NC(=O)[C@H](CC(N)=O)NC(=O)[C@H](Cc3ccccc3)NC(=O)[C@H](Cc3ccccc3)NC(=O)[C@H](CCCNC(=N)N)NC(=O)[C@@H]1Cc1ccccc1)[C@H]1C(=O)N(c3ccccc3)C(=O)[C@H]12` [J3-major*, [ II-FRFFNK ]G]: the IC50 in assay [1] was more than 100 µM; in assay [2] it was 54 ± 6 µM; in assay [3] it was 78 ± 2 µM; in assay [5], more than 100 µM. Besides, the EC50 was more than 100 µM in assay [4], 14 ± 5 µM in assay [6] and more than 100 µM in assay [7]. For the same compound, in assay [6], the Emax turned out to be 63%.
As for `CN1C(=O)[C@@H]2N[C@H](c3ccc(cc3)C(=O)NCCCC[C@@H](C(=O)NCC(N)=O)NC(=O)[C@H](CC(N)=O)NC(=O)[C@H](Cc3ccccc3)NC(=O)[C@H](Cc3ccccc3)NC(=O)[C@H](CCCNC(=N)N)NC(=O)[C@@H]1Cc1ccccc1)[C@@H]1C(=O)N(c3ccccc3)C(=O)[C@@H]12` [J3-minor*, [ II-FRFFNK ]G], the IC50 in assay [1] was 17 ± 2 µM; in assay [2], 6.2 ± 0.5 µM; in assay [3], 13 ± 1 µM; in assay [5], 21 ± 1 µM. Further, the EC50 in assay [4], in assay [6] and in assay [7] was more than 100 µM each time.
For the compound `CN1C(=O)[C@@H]2N[C@H](c3ccc(cc3)C(=O)NCCCC[C@@H](C(=O)N[C@@H](Cc3ccc(O)cc3)C(N)=O)NC(=O)[C@H](CC(N)=O)NC(=O)[C@@H](Cc3ccccc3)NC(=O)[C@@H](Cc3ccccc3)NC(=O)[C@H](CCCNC(=N)N)NC(=O)[C@@H]1Cc1ccccc1)[C@@H]1C(=O)N(c3ccccc3)C(=O)[C@@H]12` [K1-major, [II-FRffNK ]Y], the IC50 in assay [1] turned out to be 54 ± 4 µM; in assay [2], 4.1 µM; in assay [3] it was 31 ± 3 µM; in assay [5], 19 ± 3 µM. Further, in assay [2] (ratio of binding IC50, MC1R versus MC5R), the “selectivity for MC5R against MC1R” value turned out to be 7 fold. The “selectivity for MC5R against MC3R” value in assay [2] (ratio of binding IC50, MC3R versus MC5R) turned out to be 5 fold. For the same compound, in assay [2] (ratio of binding IC50, MC4R versus MC5R), the “selectivity for MC5R against MC4R” value amounted to 13 fold. Further, the EC50 in assay [4] is more than 100 µM; in assay [6], 4.1 ± 0.4 µM; in assay [7], more than 100 µM. The Emax in assay [6] was found to be 47%.
As for `CN1C(=O)[C@@H]2[C@H](C1=O)[C@H]1N[C@@H]2C(=O)N(C)[C@@H](Cc2ccccc2)C(=O)N[C@@H](CCCNC(=N)N)C(=O)N[C@H](Cc2ccccc2)C(=O)N[C@H](Cc2ccccc2)C(=O)N[C@@H](CC(N)=O)C(=O)N[C@H](C(=O)NCC(N)=O)CCCCNC(=O)c2ccc1cc2` [K2-minor, [I-FRffNK ]G], the IC50 in assay [1], in assay [2], in assay [3] and in assay [5] was more than 10 µM in each case. Also, the EC50 in assay [4], in assay [6] and in assay [7] was more than 10 µM throughout.
On to `CN1C(=O)[C@@H]2N[C@H](c3ccc(cc3)C(=O)NCCCC[C@@H](C(=O)NCC(N)=O)NC(=O)[C@H](CC(N)=O)NC(=O)[C@@H](Cc3ccccc3)NC(=O)[C@@H](Cc3ccccc3)NC(=O)[C@H](CCCNC(=N)N)NC(=O)[C@@H]1Cc1ccccc1)[C@@H]1C(=O)N(c3ccccc3)C(=O)[C@@H]12` [K3-major, [II-FRffNK ]G], for which the IC50 was more than 10 µM in assay [1], 4.2 ± 0.1 µM in assay [2], more than 10 µM in assay [3] and more than 10 µM in assay [5]. Also, the concentration for a half-maximal effect (EC50) in assay [4], in assay [6] and in assay [7] was more than 10 µM in each case. Besides, the Emax in assay [6] amounted to 42%.
For the compound `CN1C(=O)[C@H]2N[C@@H](c3ccc(cc3)C(=O)NCCCC[C@@H](C(=O)NCC(N)=O)NC(=O)[C@H](CC(N)=O)NC(=O)[C@@H](Cc3ccccc3)NC(=O)[C@@H](Cc3ccccc3)NC(=O)[C@H](CCCNC(=N)N)NC(=O)[C@@H]1Cc1ccccc1)[C@H]1C(=O)N(c3ccccc3)C(=O)[C@H]12` [K3-minor, [II-FRffNK ]G], the IC50 in assay [1], in assay [2], in assay [3] and in assay [5] was more than 10 µM in each case. The EC50 in assay [4], in assay [6] and in assay [7] was more than 10 µM throughout.
As for `COc1ccc(N2C(=O)[C@@H]3[C@H](C2=O)[C@H]2N[C@@H]3c3ccc(cc3)C(=O)NCCCC[C@@H](C(=O)NCC(N)=O)NC(=O)[C@H](CC(N)=O)NC(=O)[C@@H](Cc3ccccc3)NC(=O)[C@@H](Cc3ccccc3)NC(=O)[C@H](CCCNC(=N)N)NC(=O)[C@H](Cc3ccccc3)N(C)C2=O)cc1` [K4-major, [III-FRffNK ]G], the IC50 is more than 100 µM in assay [1], 16 ± 1 µM in assay [2], 58 ± 1 µM in assay [3] and 57 ± 1 µM in assay [5]. Also, in assay [4] (setting [8]), the “% Effect hMC3R cAMP” value worked out at 26%. In addition, the values for the EC50 in assay [4], in assay [6] and in assay [7] were 6.4 ± 1.1 µM, 3.9 ± 0.5 µM and 3.7 ± 0.2 µM, respectively. Moreover, in assay [6], the Emax was found to be 85%. In addition, in assay [7] (setting [8]), the “% Effect hMC4R cAMP” value turned out to be 66%.
